According to ChEMBL document CHEMBL4011644, “3-Hydroxy-N'-arylidenepropanehydrazonamides with Halo-Substituted Phenanthrene Scaffolds Cure P. berghei Infected Mice When Administered Perorally” (J Med Chem, 2017):
Calls of active or inactive are those of the source. No cut-off for these calls is given here.

System: Plasmodium berghei
Assay: […] activity against GFP-fused Plasmodium berghei liver stage parasites infected in human HepG2-A16-CD81-EGFP cells after 48 hrs by luciferase reporter gene assay
Format: functional
Conditions: not given
With `N/C(CC(O)c1cc2c(Cl)cc(Cl)cc2c2cc(C(F)(F)F)ccc12)=N\N=C\c1ccc(F)cc1` (stereo not drawn) the IC50 was 13000 nM. `O=C1C(O)=C([C@H]2CC[C@H](c3ccc(Cl)cc3)CC2)C(=O)c2ccccc21` [ATOVAQUONE] gave an IC50 of 0.26 nM.

System: Plasmodium falciparum
Assay: Gametocytocidal activity against transgenic GFP-fused Plasmodium falciparum NF54 […] stage gametocytes after 72 hrs by Mitotracker Red CMH2XRos staining based confocal microscopic method
Format: functional
Conditions: NF54, 72 h
Work on `N/C(CC(O)c1cc2c(Cl)cc(Cl)cc2c2cc(C(F)(F)F)ccc12)=N\N=C\c1ccc(F)cc1` (stereo not drawn) yielded an IC50 of 36 nM.

System: Plasmodium berghei
Assay: Antiplasmodial activity against Plasmodium berghei infected in NMRI mouse assessed as reduction in parasitemia at 30 mg/kg, po administered at 4, 24, 48, 72 hrs post infection measured on day 4 by Peter's test relative to control
Format: functional
Set-up: scale not given: the % may be the effect or the level left
Conditions: not given
Work on `N/C(CC(O)c1cc2c(Cl)cc(Cl)cc2c2cc(C(F)(F)F)ccc12)=N\N=C\c1ccc(F)cc1` (stereo not drawn) yielded an Activity of 99.4%.

System: Mus musculus
Assay: Toxicity in NMRI mouse infected with Plasmodium berghei assessed as overt toxicity at 50 mg/kg, ip administered at 4, 24, 48, 72 hrs post infection
Format: organism-based
Conditions: in vivo
For `N/C(CC(O)c1cc2c(Cl)cc(Cl)cc2c2cc(C(F)(F)F)ccc12)=N\N=C\c1ccc(F)cc1` (stereo not drawn), the Activity was “Non-Toxic”.

System: Plasmodium falciparum
Assay: Effect on female gamete formation in transgenic GFP-fused Plasmodium falciparum NF54 mature stage-5 gametocytes at 1 uM after 72 hrs under reduced oxygen tension by Mitotracker Red CMH2XRos staining based confocal microscopic method
Format: functional
Conditions: not given
With `N/C(CC(O)c1cc2c(Cl)cc(Cl)cc2c2cc(C(F)(F)F)ccc12)=N\N=C\c1ccc(F)cc1` (stereo not drawn) the Activity was “inactive”.

System: Plasmodium berghei
Assay: Antiplasmodial activity against Plasmodium berghei infected in NMRI mouse assessed as mean survival time at 30 mg/kg, po administered at 4, 24, 48, 72 hrs post infection by Peter's test (reference value: 6 to 7 day)
Format: functional
Conditions: not given
In the case of `N/C(CC(O)c1cc2c(Cl)cc(Cl)cc2c2cc(C(F)(F)F)ccc12)=N\N=C\c1ccc(F)cc1` (stereo not drawn), the MST is reported as 13.7 days.

System: Plasmodium berghei
Assay: Antiplasmodial activity against Plasmodium berghei infected in NMRI mouse assessed as reduction in parasitemia at 50 mg/kg, po administered at 4, 24, 48, 72 hrs post infection measured on day 4 post infection by Peter's test relative to control
Format: functional
Set-up: scale not given: the % may be the effect or the level left
Conditions: not given
`N/C(CC(O)c1cc2c(Cl)cc(Cl)cc2c2cc(C(F)(F)F)ccc12)=N\N=C\c1ccc(F)cc1` (stereo not drawn) gave an Activity of 99.9%.

System: Plasmodium berghei
Assay: Antiplasmodial activity against Plasmodium berghei infected in NMRI mouse assessed as parasite free mouse at 10 mg/kg, po administered at 4, 24, 48, 72 hrs post infection measured on day 4 by Peter's test
Format: functional, organism-based
Conditions: not given
In the case of `N/C(CC(O)c1cc2c(Cl)cc(Cl)cc2c2cc(C(F)(F)F)ccc12)=N\N=C\c1ccc(F)cc1` (stereo not drawn), the Activity is reported as “inactive”.

System: Plasmodium falciparum
Assay: Antiplasmodial activity against chloroquine-sensitive asexual blood stages of Plasmodium falciparum 3D7 after 72 hrs by HRP2-based ELISA
Format: functional
Conditions: 3D7, 72 h
Work on `N/C(CC(O)c1cc2c(Cl)cc(Cl)cc2c2cc(C(F)(F)F)ccc12)=N\N=C\c1ccc(F)cc1` (stereo not drawn) yielded an IC50 of 1.8 nM.

System: Plasmodium berghei
Assay: Antiplasmodial activity against Plasmodium berghei infected in NMRI mouse assessed as parasite-free mouse at 30 mg/kg, po administered at 4, 24, 48, 72 hrs post infection measured on day 30 by Peter's test
Format: functional, organism-based
Conditions: not given
For `N/C(CC(O)c1cc2c(Cl)cc(Cl)cc2c2cc(C(F)(F)F)ccc12)=N\N=C\c1ccc(F)cc1` (stereo not drawn), the Activity was “inactive”.

System: Plasmodium falciparum
Assay: Effect on male gamete formation in transgenic GFP-fused Plasmodium falciparum NF54 mature stage-5 gametocytes at 1 uM after 72 hrs under reduced oxygen tension by Mitotracker Red CMH2XRos staining based confocal microscopic method
Format: functional
Conditions: not given
In the case of `N/C(CC(O)c1cc2c(Cl)cc(Cl)cc2c2cc(C(F)(F)F)ccc12)=N\N=C\c1ccc(F)cc1` (stereo not drawn), the Activity is reported as “inactive”.

System: Plasmodium falciparum
Assay: Gametocytocidal activity against transgenic GFP-fused Plasmodium falciparum NF54 early stage gametocytes after 72 hrs by Mitotracker Red CMH2XRos staining based confocal microscopic method
Format: functional
Conditions: NF54, 72 h
`N/C(CC(O)c1cc2c(Cl)cc(Cl)cc2c2cc(C(F)(F)F)ccc12)=N\N=C\c1ccc(F)cc1` (stereo not drawn) gave an IC50 of 31 nM.

System: Plasmodium berghei
Assay: Antiplasmodial activity against Plasmodium berghei infected in NMRI mouse assessed as parasite free mouse at 3 mg/kg, po administered at 4, 24, 48, 72 hrs post infection measured on day 4 by Peter's test
Format: functional, organism-based
Conditions: not given
In the case of `N/C(CC(O)c1cc2c(Cl)cc(Cl)cc2c2cc(C(F)(F)F)ccc12)=N\N=C\c1ccc(F)cc1` (stereo not drawn), the Activity is reported as “inactive”.

System: Plasmodium berghei
Assay: Antiplasmodial activity against Plasmodium berghei infected in NMRI mouse assessed as mean survival time at 50 mg/kg, ip administered at 4, 24, 48, 72 hrs post infection by Peter's test (reference value: 6 to 7 day)
Format: functional
Conditions: not given
`N/C(CC(O)c1cc2c(Cl)cc(Cl)cc2c2cc(C(F)(F)F)ccc12)=N\N=C\c1ccc(F)cc1` (stereo not drawn) gave an MST of 25.3 days.

System: Plasmodium berghei
Assay: Antiplasmodial activity against Plasmodium berghei infected in NMRI mouse assessed as reduction in parasitemia at 50 mg/kg, ip administered at 4, 24, 48, 72 hrs post infection measured on day 4 post infection by Peter's test relative to control
Format: functional
Set-up: scale not given: the % may be the effect or the level left
Conditions: not given
For `N/C(CC(O)c1cc2c(Cl)cc(Cl)cc2c2cc(C(F)(F)F)ccc12)=N\N=C\c1ccc(F)cc1` (stereo not drawn), the Activity was 99.9%.

System: Plasmodium berghei
Assay: Antiplasmodial activity against Plasmodium berghei infected in NMRI mouse assessed as reduction in parasitemia at 10 mg/kg, po administered at 4, 24, 48, 72 hrs post infection measured on day 4 by Peter's test relative to control
Format: functional
Set-up: scale not given: the % may be the effect or the level left
Conditions: not given
With `N/C(CC(O)c1cc2c(Cl)cc(Cl)cc2c2cc(C(F)(F)F)ccc12)=N\N=C\c1ccc(F)cc1` (stereo not drawn) the Activity was 80%.

System: not listed separately
Assay: Selectivity index, ratio of IC50 for human HepG2 cells to IC50 for chloroquine-sensitive asexual blood stages of Plasmodium falciparum 3D7
Format: toxicity
Conditions: read-out: Ratio IC50
For `N/C(CC(O)c1cc2c(Cl)cc(Cl)cc2c2cc(C(F)(F)F)ccc12)=N\N=C\c1ccc(F)cc1` (stereo not drawn), the selectivity ratio was 24300.

System: Plasmodium berghei
Assay: Antiplasmodial activity against Plasmodium berghei infected in NMRI mouse assessed as mean survival time at 10 mg/kg, po administered at 4, 24, 48, 72 hrs post infection measured on day 4 by Peter's test (reference value: 6 to 7 day)
Format: functional
Conditions: not given
For `N/C(CC(O)c1cc2c(Cl)cc(Cl)cc2c2cc(C(F)(F)F)ccc12)=N\N=C\c1ccc(F)cc1` (stereo not drawn), the MST was 5 days.

System: HepG2
Assay: Cytotoxicity against human HepG2 cells by CellTiterGlo assay
Format: cell-based
Conditions: not given
Work on `N/C(CC(O)c1cc2c(Cl)cc(Cl)cc2c2cc(C(F)(F)F)ccc12)=N\N=C\c1ccc(F)cc1` (stereo not drawn) yielded an IC50 of 43800 nM.

System: Plasmodium falciparum
Assay: Antiplasmodial activity against multidrug-resistant asexual blood stages of Plasmodium falciparum Dd2 after 72 hrs by HRP2-based ELISA
Format: functional
Conditions: Dd2, 72 h
Compound `N/C(CC(O)c1cc2c(Cl)cc(Cl)cc2c2cc(C(F)(F)F)ccc12)=N\N=C\c1ccc(F)cc1` (stereo not drawn) has an IC50 of 2.5 nM.

System: Plasmodium berghei
Assay: Antiplasmodial activity against Plasmodium berghei infected in NMRI mouse assessed as reduction in parasitemia at 3 mg/kg, po administered at 4, 24, 48, 72 hrs post infection measured on day 4 by Peter's test relative to control
Format: functional
Set-up: scale not given: the % may be the effect or the level left
Conditions: not given
For `N/C(CC(O)c1cc2c(Cl)cc(Cl)cc2c2cc(C(F)(F)F)ccc12)=N\N=C\c1ccc(F)cc1` (stereo not drawn), the Activity was <40%.

System: Plasmodium berghei
Assay: Antiplasmodial activity against Plasmodium berghei infected in NMRI mouse assessed as mean survival time at 50 mg/kg, po administered at 4, 24, 48, 72 hrs post infection by Peter's test (reference value: 6 to 7 day)
Format: functional
Conditions: not given
`N/C(CC(O)c1cc2c(Cl)cc(Cl)cc2c2cc(C(F)(F)F)ccc12)=N\N=C\c1ccc(F)cc1` (stereo not drawn) gave an MST of 25.3 days.
